69 compounds from the OPERA property sets (Mansouri et al. 2018) can be followed below.

Consider `C=CCOc1ccccc1OCC(CNC(C)C)OC(=O)C1CC1` (centres undefined), for which the logP (in general, the decadic logarithm of the partition coefficient of the neutral form, usually between octanol and water) worked out at 3.01.

The compound `CCCCCOC(=O)c1cccnc1` showed a logP of 2.55.

With `Cc1ncc(CO)c(C=O)c1O.Cl`, the solubility (in general, the concentration that dissolves in the medium under given conditions) worked out at 2460 mM.

As to `Clc1cccc(O[Si]23OCCN(CCO2)CCO3)c1`, the logP is 0.46.

In the case of `c1ccc2c(c1)-c1cccc3c1c-2cc1ccccc13`, the logP was found to be 5.78.

In turn, `CCOC(=O)CCn1nc2ccccc2n1` registered a logP of 2.12.

As to `c1ccc2c(c1)ccc1c3ccccc3ccc21`, the logP stood at 5.81.

`Brc1cccc(Oc2ccc(Br)c(Br)c2Br)c1` gave a logP of 6.05.

Take `O=[N+]([O-])c1ccc2c(c1)Cc1ccccc1-2`: the logP was 3.37.

In turn, `O=C(O)CCCC(=O)c1ccc(-c2ccccc2)cc1` had a logP of 3.35.

Regarding `CCOc1ccccc1NCc1cnc2nc(N)nc(N)c2c1C`, the logP came out at 2.07.

As to `Clc1c(Cl)c(Cl)c2c(oc3c(Cl)c(Cl)c(Cl)c(Cl)c32)c1Cl`, the logP was 8.6.

For the compound `CN(C(=O)C(Cl)Cl)c1ccc(OC(=O)c2ccco2)cc1`, the logP stood at 2.24.

Consider `O=C(OCCO)c1ccccc1`, for which the logP stood at 1.12.

On to `CC(CCC(=O)NCC(=O)O)C1CCC2C3C(O)CC4CC(O)CCC4(C)C3CCC12C` (centres undefined), for which the logP is 2.12.

Consider `C=CC(=O)NCCN1CCOCC1`, for which the logP was -0.55.

Turning to `CCCOC(=O)c1ccccc1O`, the logP was found to be 3.8.

For `O=CNc1nc(-c2ccc([N+](=O)[O-])o2)cs1`, the logP was -1.14.

Regarding `Clc1cc(Cl)cc(O[Si]23OCCN(CCO2)CCO3)c1`, the logP was found to be 1.22.

Turning to `CCNC(N)=S`, the logP is -0.21.

`CCCc1oc(C)cc(=O)c1O` displayed a logP of 1.4.

Consider `CC(=O)CC(C)C`, for which the logP came to 1.31.

The compound `CCCCN(CCC)N=O` gave a logP of 2.09.

For the compound `Clc1ccc2ccccc2c1`, the logP worked out at 3.9.

Regarding `CCCCCCc1ccc(N)cc1`, the logP was found to be 4.21.

For `Clc1cc2c(Cl)ccc(Cl)c2c(Cl)c1Cl`, the logP turned out to be 6.8.

In the case of `N=C(N)NN=Cc1ccc(Br)cc1`, the logP was 1.3.

In turn, `CC(=O)Nc1cc(NS(=O)(=O)C(F)(F)F)c(C)cc1C` gave a logP of 2.02.

With `Cc1c(CNc2ccc(Cl)cc2)cnc2nc(N)nc(N)c12`, the logP was determined as 2.03.

`COC(=O)c1cc2ccccc2[nH]1` registered a logP of 2.45.

`CCCCC1CO1` (centres undefined) yielded a logP of 1.95.

In turn, `CCCCCCNC(=O)CCC(NS(=O)(=O)c1ccc(C)cc1)C(=O)O` (centres undefined) showed a logP of 0.84.

In turn, `COCCOC(=O)C1=C(C)NC(C)=C(C(=O)OC(C)C)C1c1cccc([N+](=O)[O-])c1` (centres undefined) gave a logP of 3.05.

As to `CCCCCCCCC`, the logP amounted to 5.65.

`Cc1nc(N)nc(C(Cl)(Cl)Cl)n1`: the logP amounted to 1.77.

The compound `C=CCN1CCC(CNC(=O)c2cc3nn[nH]c3cc2OC)C1` (centres undefined) yielded a logP of 0.95.

Take `O=S(=O)(C(Cl)(Cl)Cl)C(Cl)(Cl)Cl`: the logP stood at 3.3.

`O=[N+]([O-])c1cc(N(CCO)CCO)ccc1NCCO` returned a logP of 1.7.

In the case of `Clc1cc2c(Cl)cc(Cl)c(Cl)c2c(Cl)c1Cl`, the logP stood at 7.5.

`C=C(Br)CC1(C(C)CC)C(=O)NC(=O)NC1=O` (centres undefined): the logP was found to be 2.2.

In turn, `Cc1ccc(-c2ccccc2)cc1` displayed a logP of 4.63.

Compound `COc1cc([N+](=O)[O-])c2ncccc2c1` registered a logP of 1.87.

Compound `CCCCc1ccc(N)cc1` had a logP of 3.05.

On to `CN1CCN(CCn2cncc2[N+](=O)[O-])CC1`, for which the lipophilicity (logP) is -0.2.

The compound `NS(=O)(=O)c1nc2ccc(OCc3ccccc3)cc2s1` registered a logP of 3.18.

`NC(=O)NCCCn1nc(-c2ccccc2)ccc1=O` registered a lipophilicity (logP) of 0.69.

Take `Clc1ccc2c(ccc3ccccc32)c1`: the logP was 5.16.

`N[C@@H](Cc1ccc(O)c(O)c1)C(=O)OCCOc1ccccc1` displayed a logP of 1.51.

Consider `CCCCCCOCCO`, for which the log partition coefficient (logP) came out at 1.86.

In turn, `CCN(C)N=O` returned a lipophilicity (logP) of 0.04.

As to `N#CC(C#N)=Cc1ccco1`, the lipophilicity (logP) stood at 1.4.

The compound `Cc1cccc2c1Cc1ccccc1-2` had a logP of 4.97.

`c1ccc2c(c1)[nH]c1cnccc12` displayed a logP of 3.17.

For the compound `Brc1cc(Br)c(Oc2cc(Br)c(Br)c(Br)c2)cc1Br`, the logP was 7.4.

The compound `N=C(N)NN=C1C=CC(=NNC(N)=S)C=C1` displayed a log partition coefficient (logP) of 1.23.

The compound `N=C(N)NN=Cc1ccccc1[N+](=O)[O-]` showed a logP of 0.53.

`ClC=C1C2C(Cl)C(Cl)C(C2Cl)C1(CCl)CCl` (centres undefined) showed a logP of 5.35.

As for `CCOC(=O)CNC(=O)c1cn(CC)c2nc(C)ccc2c1=O`, the logP came out at 2.07.

In turn, `CC(C)(C)NCC(O)c1cc(O)cc(O)c1` (centres undefined) showed a logP of 0.9.

Take `CC(C)CN=C=S`: the logP is 2.82.

In turn, `CC(=O)OCN1C(=O)c2cccc3cccc(c23)C1=O` returned a logP of 2.34.

Consider `O=C(O)c1ccccc1Nc1cccc(Cl)c1`, for which the logP worked out at 5.43.

The compound `CCNC(=O)CCC(NS(=O)(=O)c1ccccc1)C(=O)O` (centres undefined) registered a logP of 0.15.

Take `Cc1nnc(-c2ccccc2)c(=O)n1N`: the logP came out at 0.83.

The compound `c1ccc2nc3c4ccccc4c4ccccc4c3cc2c1` gave a logP of 5.66.

With `OCc1c(Cl)cccc1Cl`, the lipophilicity (logP) was 2.02.

`COC(=O)c1ccsc1S(=O)(=O)NC(=O)Nc1nc(OC)nc(OC)n1`: the logP is 1.3.

In turn, `O=C1C2=C(CCCC2)C(=O)N1c1ccc(Cl)cc1` gave a logP of 3.32.

The compound `CCCC(O)CC` (centres undefined) yielded a logP of 1.65.
